Data from patent publication US6706663B2, “Herbicidal 3-heterocyclic substituted benzisothiazole and benzisoxazole compounds” (Wyeth, priority 2000, dated 2004).

Experiments:
[1] = tested on: ABUTH (Abutilon theophrasti); test: Postemergence herbicidal evaluation; type: in vivo, Medic.; conditions: postemergence
In short: (§1)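 Visual 0–9 injury scores versus control plants, covering stand, vigour, malformation, size, chlorosis and general appearance, taken four to five weeks post-spray and averaged over replicate tests. Plants were sprayed at roughly two weeks old and held on greenhouse benches.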

[2] = tested on: AMBEL (Ambrosia artemisifolia); test: Postemergence herbicidal evaluation; type: in vivo, L.; conditions: postemergence
In short: as §1

[3] = tested on: CASOB (Cassia obtusifolia); test: Postemergence herbicidal evaluation; type: in vivo, L.; conditions: postemergence
In short: as §1

[4] = tested on: CHEAL (Chenopodium album); test: Postemergence herbicidal evaluation; type: in vivo, L.; conditions: postemergence
In short: as §1

GALAP (Galium aparine) [5] = test: Postemergence herbicidal evaluation; type: in vivo; conditions: postemergence
In short: as §1

[6] = tested on: IPOHE (Ipomoea hederacea); test: Postemergence herbicidal evaluation; type: in vivo, (L.) Jacq.; conditions: postemergence
In short: as §1

[7] = tested on: ECHCG (Echinochloa crus-galli); test: Postemergence herbicidal evaluation; type: in vivo, (L.) Beau; conditions: postemergence
In short: as §1

[8] = tested on: GLXMAW (Soybean, Williams); test: Postemergence herbicidal evaluation; type: in vivo, Glycine max, (L.) Merr. cv Williams; conditions: postemergence
In short: as §1

ORYSAT (Rice, Tebonnet) [9] = test: Postemergence herbicidal evaluation; type: in vivo, Oryza sativa, (L.) Tebonnet; conditions: postemergence
In short: as §1

[10] = tested on: TRZAWR (Wheat, Winter, cv Riband); test: Postemergence herbicidal evaluation; type: in vivo, Triticum aestivum; conditions: postemergence
In short: as §1

ZEAMX (Corn, Field) [11] = test: Postemergence herbicidal evaluation; type: in vivo, Zea mays, L.; conditions: postemergence
In short: as §1

[12] = tested on: ABUTH (Abutilon theophrasti); test: Preemergence herbicidal evaluation; type: in vivo, Medic.; conditions: preemergence, rated 4-5 weeks after treatment
[13] = tested on: AMBEL (Ambrosia artemisifolia); test: Preemergence herbicidal evaluation; type: in vivo, L.; conditions: preemergence, rated 4-5 weeks after treatment
In short: (§2)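 Preemergence soil spray, aq. acetone; greenhouse; visual 0–9 score vs control at 4–5 wk.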

GALAP (Galium aparine) [14] = test: Preemergence herbicidal evaluation; type: in vivo; conditions: preemergence, rated 4-5 weeks after treatment
In short: as §2

[15] = tested on: IPOHE (Ipomoea hederacea); test: Preemergence herbicidal evaluation; type: in vivo, (L.) Jacq.; conditions: preemergence, rated 4-5 weeks after treatment
[16] = tested on: ECHCG (Echinochloa crus-galli); test: Preemergence herbicidal evaluation; type: in vivo, (L.) Beau; conditions: preemergence, rated 4-5 weeks after treatment
In short: as §2

GLXMA (Soybean) = test: Preemergence herbicidal evaluation; type: in vivo, Glycine max, (L.) Merr.; conditions: preemergence, rated 4-5 weeks after treatment
ZEAMX (Corn, Field) [17] = test: Preemergence herbicidal evaluation; type: in vivo, Zea mays, L.; conditions: preemergence, rated 4-5 weeks after treatment
[18] = tested on: ECHORC (Echinochloa oryzoides); test: Flooded paddy, preemergence weed control; type: in vivo, Echinochloa oryzoides (Ard.) Fritsch.; conditions: rated 3-4 weeks after treatment, 0-9 rating scale
In short: (§3)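 Seeds or propagating organs were sown in the top 0.5 cm of silt loam soil, flooded, and the water kept 1.5 to 3 cm above the soil surface throughout. Plants were grown in the greenhouse and rated visually on a 0-9 scale against a control.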

CYPIR (Cyperus iria) = test: Flooded paddy, preemergence weed control; type: in vivo; conditions: rated 3-4 weeks after treatment, 0-9 rating scale
In short: as §3

[19] = tested on: MOOVA (Monochoria vaginalis); test: Flooded paddy, preemergence weed control; type: in vivo, Presl.; conditions: rated 3-4 weeks after treatment, 0-9 rating scale
In short: as §3

[20] = tested on: SAGPY (Sagittaria pygmaea); test: Flooded paddy, preemergence weed control; type: in vivo, L.; conditions: rated 3-4 weeks after treatment, 0-9 rating scale
In short: as §3

ORYSAT (Rice, Tebonnet) [21] = test: Flooded paddy, post-transplant rice tolerance; type: in vivo, Oryza sativa, (L.) Tebonnet; conditions: flooded paddy, post-transplant rice, rated 3-4 weeks after treatment, 0-9 rating scale
In short: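 Ten-day-old seedlings, 2/pot, silt loam; flood kept 1.5–3 cm over soil; herbicide applied post-transplant; greenhouse; score 0–9 visual vs control.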

Cn1c(C(F)(F)F)cc(=O)n(-c2ccc3snc(-c4nc5ccccc5[nH]c4=O)c3c2)c1=O [Compound 90, 3-[3-(3,4-dihydro-3-oxo-2-quinoxalinyl)-1,2-benzisothiazol-5-yl]-1-methyl-6-(trifluoromethyl)uracil]
ABUTH herbicidal rating ([1]; rate 0.0320 kg/ha): 7.5 | ABUTH herbicidal rating ([1]; rate 0.0620 kg/ha): 7.5 | ABUTH herbicidal rating ([1]; rate 0.1250 kg/ha): 9.0 | AMBEL herbicidal rating ([2]; rate 0.0320 kg/ha): 6.5 | AMBEL herbicidal rating ([2]; rate 0.0620 kg/ha): 6.5 | AMBEL herbicidal rating ([2]; rate 0.1250 kg/ha): 9.0 | CASOB herbicidal rating ([3]; rate 0.0320 kg/ha): 5.0 | CASOB herbicidal rating ([3]; rate 0.0620 kg/ha): 5.0 | CASOB herbicidal rating ([3]; rate 0.1250 kg/ha): 5.0 | CHEAL herbicidal rating ([4]; rate 0.0320 kg/ha): 9.0 | CHEAL herbicidal rating ([4]; rate 0.0620 kg/ha): 9.0 | CHEAL herbicidal rating ([4]; rate 0.1250 kg/ha): 9.0 | GALAP herbicidal rating (GALAP (Galium aparine) [5]; rate 0.0320 kg/ha): 4.0 | GALAP herbicidal rating (GALAP (Galium aparine) [5]; rate 0.0620 kg/ha): 4.0 | GALAP herbicidal rating (GALAP (Galium aparine) [5]; rate 0.1250 kg/ha): 5.0 | IPOHE herbicidal rating ([6]; rate 0.0320 kg/ha): 6.5 | IPOHE herbicidal rating ([6]; rate 0.0620 kg/ha): 8.0 | IPOHE herbicidal rating ([6]; rate 0.1250 kg/ha): 9.0 | ECHCG herbicidal rating ([7]; rate 0.0320 kg/ha): 2.0 | ECHCG herbicidal rating ([7]; rate 0.0620 kg/ha): 3.0 | ECHCG herbicidal rating ([7]; rate 0.1250 kg/ha): 4.0 | GLXMAW herbicidal rating ([8]; rate 0.0320 kg/ha): 6.0 | GLXMAW herbicidal rating ([8]; rate 0.0620 kg/ha): 6.3 | GLXMAW herbicidal rating ([8]; rate 0.1250 kg/ha): 6.5 | ORYSAT herbicidal rating (ORYSAT (Rice, Tebonnet) [9]; rate 0.0320 kg/ha): 2.0 | ORYSAT herbicidal rating (ORYSAT (Rice, Tebonnet) [9]; rate 0.0620 kg/ha): 2.5 | ORYSAT herbicidal rating (ORYSAT (Rice, Tebonnet) [9]; rate 0.1250 kg/ha): 2.0 | TRZAWR herbicidal rating ([10]; rate 0.0320 kg/ha): 2.8 | TRZAWR herbicidal rating ([10]; rate 0.0620 kg/ha): 2.8 | TRZAWR herbicidal rating ([10]; rate 0.1250 kg/ha): 2.0 | ZEAMX herbicidal rating (ZEAMX (Corn, Field) [11]; rate 0.0320 kg/ha): 3.3 | ZEAMX herbicidal rating (ZEAMX (Corn, Field) [11]; rate 0.0620 kg/ha): 3.3 | ZEAMX herbicidal rating (ZEAMX (Corn, Field) [11]; rate 0.1250 kg/ha): 2.5 | Preemergence herbicidal rating ABUTH ([12]; rate 0.0620 kg/ha): 0.0 | Preemergence herbicidal rating ABUTH ([12]; rate 0.1250 kg/ha): 3.5 | Preemergence herbicidal rating ABUTH ([12]; rate 0.2500 kg/ha): 9.0 | Preemergence herbicidal rating AMBEL ([13]; rate 0.0620 kg/ha): 0.0 | Preemergence herbicidal rating AMBEL ([13]; rate 0.1250 kg/ha): 1.5 | Preemergence herbicidal rating AMBEL ([13]; rate 0.2500 kg/ha): 3.5 | Preemergence herbicidal rating GALAP (GALAP (Galium aparine) [14]; rate 0.0620 kg/ha): 0.0 | Preemergence herbicidal rating GALAP (GALAP (Galium aparine) [14]; rate 0.1250 kg/ha): 0.0 | Preemergence herbicidal rating GALAP (GALAP (Galium aparine) [14]; rate 0.2500 kg/ha): 3.0 | Preemergence herbicidal rating IPOHE ([15]; rate 0.0620 kg/ha): 0.0 | Preemergence herbicidal rating IPOHE ([15]; rate 0.1250 kg/ha): 0.0 | Preemergence herbicidal rating IPOHE ([15]; rate 0.2500 kg/ha): 1.5 | Preemergence herbicidal rating ECHCG ([16]; rate 0.0620 kg/ha): 0.0 | Preemergence herbicidal rating ECHCG ([16]; rate 0.1250 kg/ha): 0.0 | Preemergence herbicidal rating ECHCG ([16]; rate 0.2500 kg/ha): 1.0 | Preemergence herbicidal rating GLXMA (GLXMA (Soybean); rate 0.0620 kg/ha): 0.0 | Preemergence herbicidal rating GLXMA (GLXMA (Soybean); rate 0.1250 kg/ha): 0.0 | Preemergence herbicidal rating GLXMA (GLXMA (Soybean); rate 0.2500 kg/ha): 0.0 | Preemergence herbicidal rating ZEAMX (ZEAMX (Corn, Field) [17]; rate 0.0620 kg/ha): 0.0 | Preemergence herbicidal rating ZEAMX (ZEAMX (Corn, Field) [17]; rate 0.1250 kg/ha): 0.0 | Preemergence herbicidal rating ZEAMX (ZEAMX (Corn, Field) [17]; rate 0.2500 kg/ha): 0.0 | ECHORC herbicidal rating ([18]; rate 0.0320 kg/ha): 0.0 | ECHORC herbicidal rating ([18]; rate 0.1250 kg/ha): 0.0 | CYPIR herbicidal rating (CYPIR (Cyperus iria); rate 0.0320 kg/ha): 0.0 | CYPIR herbicidal rating (CYPIR (Cyperus iria); rate 0.1250 kg/ha): 0.0 | MOOVA herbicidal rating ([19]; rate 0.0320 kg/ha): 0.0 | MOOVA herbicidal rating ([19]; rate 0.1250 kg/ha): 0.0 | SAGPY herbicidal rating ([20]; rate 0.0320 kg/ha): 0.0 | SAGPY herbicidal rating ([20]; rate 0.1250 kg/ha): 0.0 | ORYSAT herbicidal rating (transplanted rice tolerance) (ORYSAT (Rice, Tebonnet) [21]; rate 0.0320 kg/ha): 0.0 | ORYSAT herbicidal rating (transplanted rice tolerance) (ORYSAT (Rice, Tebonnet) [21]; rate 0.1250 kg/ha): 0.0
